Data from US7803757B2, “Peptides based on the sequence of human lactoferrin and their use” (PharmaSurgics in Sweden AB, priority 1998, dated 2010).
Where two headings read alike, the source gives them in different places. Bridge positions count the residues as written; N and C are the ends. Ends that are not written are not given here. * marks the point of attachment. Acm = CC(=O)NC*

Assays:
Format in all cases: cell-based
[1] = test system: Candida albicans ATCC 64549; assay: fungicidal and growth inhibitory activity, Candida albicans ATCC 64549 (Example 8); conditions: for Concentration of agent for 100% killing: C. albicans ATCC 64549 1·10^5/ml, 2 hours 37° C., diluted BHI; for Concentration of agent for inhibition of growth: C. albicans ATCC 64549, spectrophotometrically after 20 hours
Method: Candida albicans ATCC 64549 (1·10^5/ml) was incubated in the presence of the peptides during 2 hours at 37° C. in diluted growth medium (BHI, twofold serial dilutions starting with 50 μg/ml). The fungicidal activity was measured by culturing 5 μl from each incubation well on Saboroud agar plates.
The inhibition of growth was measured spectrophotometrically after 20 hours of incubation.

E. coli O14 = assay: bactericidal and growth inhibitory activity, E. coli O14 (Example 9); conditions: for Concentration of agent for 100% killing: E. coli O14, 2 hours; for Concentration of agent for inhibition of growth: E. coli O14, spectrophotometrically after 20 hours
Method: E. coli O14 was incubated as described above in the presence of the peptides during 2 hours. The bactericidal activity was measured in the same way as described above.
The inhibition of growth was measured spectrophotometrically after incubation during 20 hours.

C. albicans (ATCC64549) = test system: C. albicans (ATCC64549)
Method: (§1) In the examples, the minimal microbicidal concentrations (MMC) and minimal inhibitory concentrations (MIC) were determined as follows, unless otherwise specified in the examples. Bacterial or fungal strains were cultured in BHI medium over night at 37° C. A volume of the culture was transferred to a new tube with BHI and incubated for two more hours. Thereafter the cells were spun down and the pellet was suspended in BHI medium diluted 1/100 (1% BHI). The concentration of bacterial or fungal cells was spectrophotometrically determined at 650 nm. The microbial concentrations were also determined by viable counts. Peptides serially diluted in 1% BHI by twofold or tenfold steps were added in triplicate to the wells of a microtiterplate (200 μl per well). The bacterial or fungal cell solutions were added in 10 μl volumes to give a final concentration of approximately 1-5×10^5 cells per ml in the well. The microplate was incubated at 37° C. in a humid chamber for two hours. Thereafter 5 μl was taken from each well and added as a drop onto a blood agar plate and incubated over night at 37° C. The microplate was incubated for another 20 hours at 37° C. and thereafter analysed spectrophotometrically at 650 nm in a microplate reader (Emax, Molecular Devices, USA). The concentration of peptide causing a 99% reduction of the inoculum after 2 hours of incubation was defined as the MMC99%. The MIC value was defined as the concentration giving no increase in the absorbance value above the background level after 20 hours of incubation.
(§2) C. albicans (ATCC64549) and E. coli O6, respectively, were incubated with the different peptides. The experiments were performed with 1, 10, 25 and 100 μg/ml of peptide.

E. coli O6 = test system: E. coli O6
Method: as §1, §2

[2] = test system: C. albicans yeast cells (ATCC64549); assay: killing and growth inhibition of C. albicans at pH 4.5 (Example 11); design: key to C. albicans inhibition (OD650): + = no increase in OD650 is seen; − = OD650 continues to increase; conditions: pH 4.5, 1% BHI, 25 μg/ml of the peptide; for C. albicans inhibition (OD650): OD650 after an additional 18 hours; for C. albicans killing: 99% / C. albicans killing: 100%: 2 hours
Method: C. albicans yeast cells (ATCC64549) were incubated for 2 hours at pH 4.5 in BHI medium diluted to 1% of the original concentration containing 25 µg/ml of the peptide. Thereafter the fungal solutions were cultured on blood agar plates. OD650 was measured after incubation during an additional 18 hours. The fungicidal effect of the peptides on C. albicans was determined as the ability of the peptide to kill 100% and 99%, respectively, of the fungus, while the growth inhibitory effect was determined by measuring the OD650. An inhibitory effect existed when no increase in OD650 was recorded.

E. faecalis = assay: killing of bacteria at fixed peptide concentration, E. faecalis (Example 12); conditions: peptide 25 μg/ml
Method: (§3) In this example, the peptides according to the invention were used to study the effect on the killing of different bacteria.
(§4) The peptides were used at a concentration of 25 μg/ml.

S. epidermis = assay: killing of bacteria at fixed peptide concentration, S. epidermis (Example 12); conditions: peptide 25 μg/ml
Method: as §3, §4

S. aureus = assay: killing of bacteria at fixed peptide concentration, S. aureus (Example 12); conditions: peptide 25 μg/ml
Method: as §3, §4

K. pneumoniae = assay: killing of bacteria at fixed peptide concentration, K. pneumoniae (Example 12); conditions: peptide 25 μg/ml
Method: as §3, §4

P. aeruginosa = assay: killing of bacteria at fixed peptide concentration, P. aeruginosa (Example 12); conditions: peptide 25 μg/ml
Method: as §3, §4

E. coli O6K5 = assay: microbicidal activity MMC99%, E. coli O6K5 (Example 28); conditions: E. coli O6K5 (Table 24)
Method: as §1
(§5) In this example the microbicidal activity of eight of the peptides according to the invention was studied, and tested against E. coli O6K5 and C. albicans.
(§6) The concentration of each peptide needed to kill 99% of the microorganisms (MMC99%) was determined.

C. albicans = assay: microbicidal activity MMC99%, C. albicans (Example 28); conditions: C. albicans (Table 24)
Method: as §1, §5, §6

[3] = C. albicans, tested at 1, 10, 25 and 100 μg/ml of peptide
[4] = E. coli O6, tested at 1, 10, 25 and 100 μg/ml of peptide

Substance	Concentration of agent for 100% killing [1] [µg/mL]	Concentration of agent for inhibition of growth [1] [µg/mL]	Concentration of agent for 100% killing (E. coli O14) [µg/mL]	Concentration of agent for inhibition of growth (E. coli O14) [µg/mL]	MIC (C. albicans (ATCC64549); [3]) [µg/mL]	MMC99% (C. albicans (ATCC64549); [3]) [µg/mL]	MIC (E. coli O6; [4]) [µg/mL]	MMC99% (E. coli O6; [4]) [µg/mL]	C. albicans inhibition (OD650) [2]	C. albicans killing: 99% [2]	C. albicans killing: 100% [2]	killing of bacteria: E. faecalis (E. faecalis)	killing of bacteria: S. epidermis (S. epidermis)	killing of bacteria: S. aureus (S. aureus)	killing of bacteria: K. pneumoniae (K. pneumoniae)	killing of bacteria: P. aeruginosa (P. aeruginosa)	MIC (C. albicans (ATCC64549); ATCC64549) [µg/mL]	MIC (E. coli O6; O6) [µg/mL]	MMC99% (E. coli O6K5)	MMC99% (C. albicans)
KCFQWQRNMRKVRGPPVSCI [Morinaga 25] (KCFQWQRNMRKVRGPPVSCI) [reference compound]	6.2	6.2	12.5	3.1																
Peptide 57: 14 amino acids, modified positions 18-31 of human lactoferrin; sequence only in sequence listing (TKKFQWQRNMRKVR)					10	25	10	10	+	+ (+ = 100/99% of the bacteria are killed)	+ (+ = 100/99% of the bacteria are killed)	+ (+ = 99% of the bacteria are killed)	+ (+ = 99% of the bacteria are killed)	+ (+ = 99% of the bacteria are killed)	+ (+ = 99% of the bacteria are killed)	+ (+ = 99% of the bacteria are killed)				
Peptide 2: SEQ. ID. NO. 1 with X1 E, X2 A, X5 C, X7 Q, X11 N, X17-25 G-P-P-V-S-C-I-K-R; cysteines acetamidomethyl protected (Ac-EATKC(Acm)FQWQRNMRKVRGPPVSC(Acm)IKR-NH2)	6.2	6.2	25	6.2																
Ac-TKCFQWQRNMRKVR-NH2 [Peptide 51]						10		10	+	+ (+ = 100/99% of the bacteria are killed)	+ (+ = 100/99% of the bacteria are killed)	+ (+ = 99% of the bacteria are killed)	+ (+ = 99% of the bacteria are killed)	+ (+ = 99% of the bacteria are killed)	+ (+ = 99% of the bacteria are killed)	+ (+ = 99% of the bacteria are killed)	10	10		
KCFQWQRNMRKVRGPPVSCI [Morinaga 24] (KCFQWQRNMRKVRGPPVSCI; also: cyclic peptide, ring type not given here) [reference compound]	12.5	12.5	25	6.2																
QPEATKCFQWQRNMRKVR [Peptide 33]						100		25	−	− (− = less than 100/99% of the bacteria are killed)	− (− = less than 100/99% of the bacteria are killed)	+ (+ = 99% of the bacteria are killed)	+ (+ = 99% of the bacteria are killed)	+ (+ = 99% of the bacteria are killed)	− (− = less than 99% of the bacteria are killed)	− (− = less than 99% of the bacteria are killed)	10	10		
FQWQRNMRKVR [Peptide 44]						10		10	−	− (− = less than 100/99% of the bacteria are killed)	− (− = less than 100/99% of the bacteria are killed)	+ (+ = 99% of the bacteria are killed)	+ (+ = 99% of the bacteria are killed)	+ (+ = 99% of the bacteria are killed)	− (− = less than 99% of the bacteria are killed)	− (− = less than 99% of the bacteria are killed)	10	10		
TKCFQWQRNMRKVR [Peptide 50]						10		10	+	+ (+ = 100/99% of the bacteria are killed)	+ (+ = 100/99% of the bacteria are killed)	+ (+ = 99% of the bacteria are killed)	+ (+ = 99% of the bacteria are killed)	+ (+ = 99% of the bacteria are killed)	+ (+ = 99% of the bacteria are killed)	+ (+ = 99% of the bacteria are killed)	10	10		
SEQ. ID. NO. 55: modification of SEQ. ID. NO. 7 wherein the Asp in position 9 is substituted with a Glu (TKAFKWQREMRKVR; lactam 5-9)																			5	5
EATKCFQWQRNMRKVR [Peptide 64]						25		10	+	+ (+ = 100/99% of the bacteria are killed)	− (− = less than 100/99% of the bacteria are killed)	+ (+ = 99% of the bacteria are killed)	+ (+ = 99% of the bacteria are killed)	+ (+ = 99% of the bacteria are killed)	− (− = less than 99% of the bacteria are killed)	− (− = less than 99% of the bacteria are killed)	10	10		
QWQRNMRKVR [Peptide 40]						25		>25	−	− (− = less than 100/99% of the bacteria are killed)	− (− = less than 100/99% of the bacteria are killed)	− (− = less than 99% of the bacteria are killed)	+ (+ = 99% of the bacteria are killed)	− (− = less than 99% of the bacteria are killed)	− (− = less than 99% of the bacteria are killed)	− (− = less than 99% of the bacteria are killed)	25	>25		
